Laboratory results taken from US20200063214A1, “METHODS OF IDENTIFYING PATIENTS LIKELY TO BENEFIT FROM TREATMENT WITH A TELOMERASE INHIBITOR” (Geron Corporation, priority 2018, published 2020).
Several values for one entry are separate records, joined by “and”; a condition that tells them apart may be missing. Identical values can stand only once. Entries after “also recorded” stand apart in the source; their conditions may differ.

How the values were obtained:
Format in all cases: in vivo, human
[1] = tested on: intermediate-2 or high-risk myelofibrosis (MF) relapsed/refractory to JAK inhibitor; test: Phase 2 study: symptom response (total symptom score, TSS, MFSAF v2 at week 24); settings: for subjects with TSS >= 50% decrease at week 24, No / subjects with TSS >= 50% decrease at week 24, Yes: 9.4 mg/kg
Description: (§1) Diagnosis of primary, post-essential thrombocythemia, or post-polycythemia vera MF was required; other eligibility criteria included measurable splenomegaly (by magnetic resonance imaging [MRI]), active MF-related systemic symptoms and platelet count ≥75×10^9/L. Primary endpoints were: spleen response rate (% achieving ≥35% spleen volume reduction [SVR] by MRI at week 24); and symptom response rate (% achieving ≥50% reduction in total symptom score [TSS] per the Myelofibrosis Symptom Assessment Form (MFSAF) v2 at week 24). Key secondary endpoints included safety, overall survival (OS), treatment response, molecular response, and pharmacokinetic and pharmacodynamic relationships.

[2] = tested on: intermediate-2 or high-risk myelofibrosis (MF) relapsed/refractory to JAK inhibitor; test: Phase 2 study: spleen response (spleen volume reduction, SVR, by MRI at week 24); settings: for subjects with SVR >= 20% at week 24, No / subjects with SVR >= 20% at week 24, Yes / subjects with SVR >= 35% at wk 24 by IRC, No / subjects with SVR >= 35% at wk 24 by IRC, Yes / subjects with SVR >= 20% at Week 24 by IRC, No / subjects with SVR >= 20% at Week 24 by IRC, Yes / subjects with SVR >= 35% at Week 24 by IRC, Yes / subjects with SVR >= 35% at week 24 by IRC, No: 9.4 mg/kg
Description: as §1

[3] = tested on: intermediate-2 or high-risk myelofibrosis (MF) relapsed/refractory to JAK inhibitor; test: Phase 2 study: overall survival (OS); settings: 9.4 mg/kg arm
Description: as §1

[4] = HMR with 1 Mutation, 21 subjects
[5] = HMR with >1 Mutation, 14 subjects
[6] = all patients, first clinical cutoff

## DNA, d(3′-amino-3′-deoxy-P-thio) (T-A-G-G-G-T-T-A-G-A-C-A-A), 5′-[O-[2-hydroxy-3-(hexadecanoylamino)propyl] phosphorothioate], sodium salt (1:13) [imetelstat sodium]
[1]; 9.4 mg/kg arm, all patients (n = 59)
  symptom response rate (TSS reduction >=50% at week 24): 32%
[1]; [4]
  subjects with TSS >= 50% decrease at week 24, No: 14 (66.7%)
  subjects with TSS >= 50% decrease at week 24, Yes: 7 (33.3%)
[1]; [5]
  subjects with TSS >= 50% decrease at week 24, No: 11 (78.6%)
  subjects with TSS >= 50% decrease at week 24, Yes: 3 (21.4%)
[1]; LMR, No Mutation, 22 subjects
  subjects with TSS >= 50% decrease at week 24, No: 14 (63.6%)
  subjects with TSS >= 50% decrease at week 24, Yes: 8 (36.4%)
[1]; Non-TN, 41 subjects
  subjects with TSS >= 50% decrease at week 24, No: 31 (75.6%)
  subjects with TSS >= 50% decrease at week 24, Yes: 10 (24.4%)
[1]; TN, 16 subjects
  subjects with TSS >= 50% decrease at week 24, No: 8 (50%)
  subjects with TSS >= 50% decrease at week 24, Yes: 8 (50%)
[2]; 9.4 mg/kg IV every 3 weeks arm, all patients (n = 59)
  spleen response rate (>=35% SVR by MRI at week 24): 10.2%
[2]; 9.4 mg/kg arm, week 24
  rate of response (SVR or TSS), LMR or HMR with only 1 mutation compared to HMR with more than 1 mutations: higher rate of response
  rate of response (SVR or TSS), TN group compared to Non-TN group: higher rate of response
[2]; [4]
  subjects with SVR >= 20% at week 24, No: 15 (71.4%)
  subjects with SVR >= 20% at week 24, Yes: 6 (28.6%)
  subjects with SVR >= 35% at wk 24 by IRC, No: 17 (81%)
  subjects with SVR >= 35% at wk 24 by IRC, Yes: 4 (19%)
[2]; [5]
  subjects with SVR >= 20% at week 24, No: 13 (92.9%)
  subjects with SVR >= 20% at week 24, Yes: 1 (7.1%)
  subjects with SVR >= 35% at wk 24 by IRC, Yes: 0 (0%)
[2]; LMR, No Mutation, 22 subjects
  subjects with SVR >= 20% at week 24, No: 17 (77.3%)
  subjects with SVR >= 20% at week 24, Yes: 5 (22.7%)
  subjects with SVR >= 35% at wk 24 by IRC, No: 20 (90.9%)
  subjects with SVR >= 35% at wk 24 by IRC, Yes: 2 (9.1%)
[2]; Non-TN, 41 subjects
  subjects with SVR >= 20% at Week 24 by IRC, No: 34 (82.9%)
  subjects with SVR >= 20% at Week 24 by IRC, Yes: 7 (17.1%)
  subjects with SVR >= 35% at Week 24 by IRC, Yes: 3 (7.3%)
  subjects with SVR >= 35% at week 24 by IRC, No: 38 (92.7%)
[2]; TN, 16 subjects
  subjects with SVR >= 20% at Week 24 by IRC, No: 11 (68.75)) %
  subjects with SVR >= 20% at Week 24 by IRC, Yes: 5 (31.25%)
  subjects with SVR >= 35% at Week 24 by IRC, Yes: 3 (18.75%)
  subjects with SVR >= 35% at week 24 by IRC, No: 13 (81.25%)
[2]; patients with 1 HMR mutation (ASXL1, EZH2, SRSF2, or IDH1/2)
  spleen response rate, comparison by HMR mutation: higher
[3]; Non-TN subjects, first clinical cutoff
  Median survival, months (95% CI): 23.6 months and 23.6 (20.7, NE) months
[3]; Non-TN vs TN, first clinical cutoff
  OS HR (95% CI): 2.76 (0.81, 9.46)
[3]; Non-TN, first clinical cutoff
  Death rate %: 41.5%
[3]; TN subjects, first clinical cutoff
  Median survival, months (95% CI): has not been reached; also recorded: not estimable; also recorded: NE (23.2, NE)
[3]; TN, first clinical cutoff
  Death rate %: 18.8%
[3]; [6]
  18-month survival rate: 76.7%
  median OS: has not been reached
[3]; all patients, second clinical cutoff
  median OS: 29.9 months
[3]; first clinical cutoff
  death rate, TN group compared to Non-TN group: lower death rate
[3]; second clinical cutoff
  death rate, TN group compared to Non-TN group: lower death rate
